Test [1] deals with human RORγ ligand binding domain (GST-hRORγ-LBD) (Homo sapiens (Human), UniProt P51449). The experiment in a line: TR-FRET assay (biochemical cofactor interaction assay, GST-hRORγ-LBD / TRAP220 peptide). The source says: RORγ is an orphan member of the nuclear receptor (NR) family displaying constitutive activity. The activity of nuclear receptors can be modulated by ligand-induced cofactor protein interactions. For example, agonist binding leads to recruitment of coactivator protein, and antagonist binding either blocks coactivator interaction or facilitates the recruitment of corepressors. […] The conformational change induced by ligand binding influences interactions with LXXLL motif peptides.
RORγ (t) is a thymus-specific isoform of RORγ which is widely expressed. It shares the same ligand binding domain (LBD) sequence with RORγ. Thus, a screen using the LBD will yield antagonists targeting both RORγ and RORγt.
In order to identify compounds which block activity of the human nuclear receptor Retinoid-related Orphan Receptor gamma (RORγ) a biochemical cofactor interaction assay based on the TR-FRET principle is performed. […] The ligand-binding domain (LBD) of RORγ is expressed as fusion protein with GST in […] cells using the vector pDEST15. Cells are lysed by lysozyme-treatment and sonication, and the fusion proteins purified over glutathione sepharose (Pharmacia) according to the manufacturers instructions. The strong constitutive interaction is disrupted upon binding of functional antagonists. The strength of the interaction is monitored by TR-FRET between streptavidine APC interacting with the biotinylated peptide and Europium-labelled Anti-GST.

Test [2] concerns the target RORγ Ligand binding domain (RORγ-LBD, aa 238-497, NP_001001523) (Homo sapiens (Human), UniProt P51449). The experiment in a line: ROR γ GAI4 Reporter Gene Assay (Mammalian one-hybrid, M1H) in 293T cells. It is filed as cell-based. The source says:
ROR γ GAI4 Reporter Gene Assay
A Mammalian one-hybrid system is used to perform a cell-based functional transactivation assay for detecting RORγ activity modulators.
The Mammalian-1-Hybrid is derived from the Mammalian-2-Hybrid setup. Whereas in the latter, the binding partners are defined in their role as interaction, transactivation and DNA-binding components, the Mammalian-1-Hybrid makes use of the fact that all mammalian cell types express a set of Nuclear Receptors and their associated cofactors. […] A Gal4 minimal promoter driven luciferase construct (pFR-Luc from Stratagene, containing a synthetic promoter with five tandem repeats of the yeast GAL4 binding sites controlling expression of the Photinus pyralis luciferase gene) is used as reporter. The Gal4-DBD-NR-LBD fusion protein by itself cannot initiate transcription and is dependent on the presence of cofactors present in the cellular system used.
In order to rule out cytotoxic and unspecific transcriptional compound effects a transfection with a firefly luciferase driven by the constitutive CMV promoter is performed in parallel.
After transfection 18 μl complete MEM medium containing 3% charcoal-dextran treated FBS is added as well as 4 μl test compounds (DMSO stocks prediluted in OptiMem (Invitrogen)) followed by incubation for 16-24 h at 37° C., 5% CO2 and 90% rH.
Firefly luciferase activity is measured using the Promega ONE-Glo™ Luciferase Assay System.

Chain of human RORγ ligand binding domain (GST-hRORγ-LBD) (P51449 269-508): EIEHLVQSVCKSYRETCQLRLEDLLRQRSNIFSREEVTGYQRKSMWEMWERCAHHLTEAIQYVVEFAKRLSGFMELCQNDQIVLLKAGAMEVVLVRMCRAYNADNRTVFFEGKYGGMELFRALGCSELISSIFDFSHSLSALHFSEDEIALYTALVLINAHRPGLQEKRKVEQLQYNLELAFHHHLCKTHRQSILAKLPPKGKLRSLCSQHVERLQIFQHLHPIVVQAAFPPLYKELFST
Chain of RORγ Ligand binding domain (RORγ-LBD, aa 238-497, NP_001001523) (P51449 259-518): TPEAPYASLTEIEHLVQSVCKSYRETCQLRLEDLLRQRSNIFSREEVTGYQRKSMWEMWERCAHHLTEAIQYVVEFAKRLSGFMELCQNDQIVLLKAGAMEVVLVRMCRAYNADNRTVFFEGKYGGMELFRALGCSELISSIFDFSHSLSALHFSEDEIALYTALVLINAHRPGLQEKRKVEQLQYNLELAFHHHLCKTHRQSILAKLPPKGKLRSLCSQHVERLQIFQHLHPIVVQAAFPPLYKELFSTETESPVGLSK

`Cc1cccc(CN2CCn3nnnc3C2c2ccc(F)cc2)c1` (single isomer, unassigned) [Compound 93-a, 8-(4-Fluoro-phenyl)-7-(3-methyl-benzyl)-5,6,7,8-tetrahydro-tetrazolo[1,5-a]pyrazine]: the IC50 was in the range of 0.01 to 0.99 µM in test [1] and 0.99 to 9.9 µM in test [2].

For the molecule `CC(C)c1nn(-c2ccccc2)cc1C1c2nnnn2CCN1Cc1cnn2ccccc12` (stereo not drawn) [Compound 154, 8-(3-Isopropyl-1-phenyl-1H-pyrazol-4-yl)-7-pyrazolo[1,5-a]pyridin-3-ylmethyl-5,6,7,8-tetrahydro-tetrazolo[1,5-a]pyrazine], the IC50 in test [1] is 9.9 to 40 µM; in test [2], 0.99 to 9.9 µM.

Regarding `CC(C)c1nn(-c2ccccc2)cc1C1c2nnnn2CCN1Cc1ccc2c(c1)OCO2` (stereo not drawn) [Compound 58, 7-Benzo[1,3]dioxol-5-ylmethyl-8-(3-isopropyl-1-phenyl-1H-pyrazol-4-yl)-5,6,7,8-tetrahydro-tetrazolo[1,5-a]pyrazine], the IC50 in test [1] lay within 9.9 to 40 µM; in test [2] it was 0.99 to 9.9 µM.

Take `CC(C)c1nn(-c2ccccc2)cc1C1c2nnnn2CCN1Cc1cccs1` (single isomer, unassigned) [Compound 61-a, 8-(3-Isopropyl-1-phenyl-1H-pyrazol-4-yl)-7-thiophen-2-ylmethyl-5,6,7,8-tetrahydro-tetrazolo[1,5-a]pyrazine]: the IC50 in test [1] and in test [2] was 0.01 to 0.99 µM each time.

Take `CC(C)Oc1ccc(C2c3nnnn3CCN2Cc2ccc3c(c2)OCO3)cc1` (stereo not drawn) [Compound 131, 7-Benzo[1,3]dioxol-5-ylmethyl-8-(4-isopropoxy-phenyl)-5,6,7,8-tetrahydro-tetrazolo[1,5-a]pyrazine]: the IC50 lay in the range of 0.99 to 9.9 µM in test [1] and 9.9 to 40 µM in test [2].

For the molecule `Cc1cccc(C2c3nnnn3CCN2Cc2ccccc2)c1` (stereo not drawn) [Compound 100, 7-Benzyl-8-m-tolyl-5,6,7,8-tetrahydro-tetrazolo[1,5-a]pyrazine], the figures for the IC50 in test [1] and in test [2] were 0.01 to 0.99 µM and 9.9 to 40 µM, respectively.

With `COc1ccc(OC)c(CN2CCn3nnnc3C2c2cccc(F)c2F)c1` (stereo not drawn) [Compound 71, 8-(2,3-Difluoro-phenyl)-7-(2,5-dimethoxy-benzyl)-5,6,7,8-tetrahydro-tetrazolo[1,5-a]pyrazine], the IC50 in test [1] and in test [2] was 9.9 to 40 µM in each case.

On to `Fc1cccc(C2c3nnnn3CCN2Cc2cccs2)c1` (stereo not drawn) [Compound 117, 8-(3-Fluoro-phenyl)-7-thiophen-2-ylmethyl-5,6,7,8-tetrahydro-tetrazolo[1,5-a]pyrazine], for which the results for the half-maximal inhibitory concentration (IC50) in test [1] and in test [2] were 0.99 to 9.9 µM and 9.9 to 40 µM, respectively.

`Fc1cccc(C2c3nnnn3CCN2Cc2cccc(Br)c2)c1` (stereo not drawn) [Compound 163, 7-(3-Bromo-benzyl)-8-(3-fluoro-phenyl)-5,6,7,8-tetrahydro-tetrazolo[1,5-a]pyrazine]: the IC50 in test [1] lay in the range of 0.01 to 0.99 µM; in test [2] it was 9.9 to 40 µM.

With `COc1ccc(OC)c(CN2CCn3nnnc3C2c2cn(-c3ccccc3)nc2C(C)C)c1` (stereo not drawn) [Compound 54, 7-(2,5-Dimethoxy-benzyl)-8-(3-isopropyl-1-phenyl-1H-pyrazol-4-yl)-5,6,7,8-tetrahydro-tetrazolo[1,5-a]pyrazine], the IC50 in test [1] and in test [2] was 9.9 to 40 µM in each case.

Consider `CCOc1ccc(C2c3nnnn3CCN2Cc2ccc(F)cc2)cc1` (stereo not drawn) [Compound 134, 8-(4-Ethoxy-phenyl)-7-(4-fluoro-benzyl)-5,6,7,8-tetrahydro-tetrazolo[1,5-a]pyrazine], for which the values for the IC50 in test [1] and in test [2] were 0.99 to 9.9 µM and 9.9 to 40 µM, respectively.

For the molecule `Fc1ccc(C2c3nnnn3CCN2Cc2ccccc2)cc1` (stereo not drawn) [Compound 102, 7-Benzyl-8-(4-fluoro-phenyl)-5,6,7,8-tetrahydro-tetrazolo[1,5-a]pyrazine], the IC50 in test [1] fell in the range of 0.01 to 0.99 µM; in test [2], 9.9 to 40 µM.

For `Fc1ccc(C2c3nnnn3CCN2Cc2cccc(Br)c2)cc1` (racemic) [Compound 96, 7-(3-Bromo-benzyl)-8-(4-fluoro-phenyl)-5,6,7,8-tetrahydro-tetrazolo[1,5-a]pyrazine], the IC50 in test [1] was 0.01 to 0.99 µM; in test [2] it was 0.99 to 9.9 µM.

Consider `Fc1ccc(C2c3nnnn3CCN2Cc2cccc(Br)c2)cc1` (single isomer, unassigned) [Compound 96-a, 7-(3-Bromo-benzyl)-8-(4-fluoro-phenyl)-5,6,7,8-tetrahydro-tetrazolo[1,5-a]pyrazine], for which the IC50 fell in the range of 0.01 to 0.99 µM in test [1] and 0.99 to 9.9 µM in test [2].

For `COc1ccc(OC)c(C2c3nnnn3CCN2Cc2ccc(F)cc2)c1` (stereo not drawn) [Compound 128, 8-(2,5-Dimethoxy-phenyl)-7-(4-fluoro-benzyl)-5,6,7,8-tetrahydro-tetrazolo[1,5-a]pyrazine], the results for the half-maximal inhibitory concentration (IC50) in test [1] and in test [2] were 0.99 to 9.9 µM and 9.9 to 40 µM, respectively.

Turning to `Cc1cccc(CN2CCn3nnnc3C2c2ccc3c(c2)OCCO3)c1` (stereo not drawn) [Compound 95, 8-(2,3-Dihydro-benzo[1,4]dioxin-6-yl)-7-(3-methyl-benzyl)-5,6,7,8-tetrahydro-tetrazolo[1,5-a]pyrazine], the IC50 in test [1] was 0.01 to 0.99 µM; in test [2], 0.99 to 9.9 µM.

In the case of `Brc1cccc(CN2CCn3nnnc3C2C2CCCCC2)c1` (stereo not drawn) [Compound 65, 7-(3-Bromo-benzyl)-8-cyclohexyl-5,6,7,8-tetrahydro-tetrazolo[1,5-a]pyrazine], the half-maximal inhibitory concentration (IC50) in test [1] and in test [2] was 9.9 to 40 µM in each case.

`Cc1cccc(CN2CCn3nnnc3C2c2ccc(F)cc2F)c1` (stereo not drawn) [Compound 136, 8-(2,4-Difluoro-phenyl)-7-(3-methyl-benzyl)-5,6,7,8-tetrahydro-tetrazolo[1,5-a]pyrazine]: the half-inhibitory concentration (IC50) is 0.99 to 9.9 µM in test [1] and 9.9 to 40 µM in test [2].

`Cc1c(CN2CCn3nnnc3C2c2cn(-c3ccccc3)nc2C(C)C)cnn1C` (stereo not drawn) [Compound 156, 7-(1,5-Dimethyl-1H-pyrazol-4-ylmethyl)-8-(3-isopropyl-1-phenyl-1H-pyrazol-4-yl)-5,6,7,8-tetrahydro-tetrazolo[1,5-a]pyrazine]: the IC50 in test [1] and in test [2] was 9.9 to 40 µM each time.

Turning to `CC(C)c1nn(-c2ccccc2)cc1C1c2nnnn2CCN1C1CCCCC1` (stereo not drawn) [Compound 114, 7-Cyclohexyl-8-(3-isopropyl-1-phenyl-1H-pyrazol-4-yl)-5,6,7,8-tetrahydro-tetrazolo[1,5-a]pyrazine], the IC50 was 0.99 to 9.9 µM in test [1] and 9.9 to 40 µM in test [2].

For `Fc1ccc(CN2CCn3nnnc3C2c2cccc(F)c2)cc1` (single isomer, unassigned) [Compound 91-b, 7-(4-Fluoro-benzyl)-8-(3-fluoro-phenyl)-5,6,7,8-tetrahydro-tetrazolo[1,5-a]pyrazine], the IC50 in test [1] and in test [2] was 0.99 to 9.9 µM each time.

For the molecule `Clc1ccc(C2c3nnnn3CCN2Cc2cccs2)cc1` (stereo not drawn) [Compound 106, 8-(4-Chloro-phenyl)-7-thiophen-2-ylmethyl-5,6,7,8-tetrahydro-tetrazolo[1,5-a]pyrazine], the concentration for half-maximal inhibition (IC50) was 0.01 to 0.99 µM in test [1] and 9.9 to 40 µM in test [2].

Turning to `Fc1cccc(CN2CCn3nnnc3C2c2cccc(F)c2)c1` (stereo not drawn) [Compound 38, 7-(3-Fluoro-benzyl)-8-(3-fluoro-phenyl)-5,6,7,8-tetrahydro-tetrazolo[1,5-a]pyrazine], the half-maximal inhibitory concentration (IC50) in test [1] and in test [2] was 0.99 to 9.9 µM in each case.

`O=C(c1cccc(Br)c1)N1CCn2nnnc2C1c1cccc(F)c1` (stereo not drawn) [Compound 82, (3-Bromo-phenyl)-[8-(3-fluoro-phenyl)-5,6-dihydro-8H-tetrazolo[1,5-a]pyrazin-7-yl]-methanone] yielded a concentration for half-maximal inhibition (IC50) in test [1] of 9.9 to 40 µM.

On to `CN(C)c1ccc(CN2CCn3nnnc3C2C2CCCCC2)cc1` (stereo not drawn) [Compound 66, [4-(8-Cyclohexyl-5,6-dihydro-8H-tetrazolo[1,5-a]pyrazin-7-ylmethyl)-phenyl]-dimethyl-amine], for which the half-inhibitory concentration (IC50) in test [1] is 9.9 to 40 µM.

Consider `CCOc1ccc(C2c3nnnn3CCN2CC2CCCCC2)cc1` (stereo not drawn) [Compound 44, 7-Cyclohexylmethyl-8-(4-ethoxy-phenyl)-5,6,7,8-tetrahydro-tetrazolo[1,5-a]pyrazine], for which the IC50 in test [1] lay in the range of 9.9 to 40 µM.

In the case of `CCOc1ccc(C2c3nnnn3CCN2Cc2cccc(F)c2F)cc1` (stereo not drawn) [Compound 45, 7-(2,3-Difluoro-benzyl)-8-(4-ethoxy-phenyl)-5,6,7,8-tetrahydro-tetrazolo[1,5-a]pyrazine], in test [1], the IC50 is 9.9 to 40 µM.

Consider “7-Benzyl-8-(4-ethyl-phenyl-1H-pyrazol-4-yl)-5,6,7,8-tetrahydro-tetrazolo[1,5-a]pyrazine [Compound 152]”, for which the IC50 in test [1] was in the range of 9.9 to 40 µM.

Source of the values: US9688684B2, “Substituted tetrazolo[1,5-a]pyrazines as ROR-gamma inhibitors” (Merck Patent GmbH, priority 2013, dated 2017).
